Drawing on BindingDB's records for patent US20240140962 (Medshine Discovery, 2024), this text covers IC50 for 8 compounds.

For this test, the target named is Serine/threonine-protein kinase PLK1 (Homo sapiens, UniProt P53350). In words: Evaluation of PLK1 Kinase Activity In Vitro. As to the method: The 33P isotope-labeled kinase activity assay (Reaction Biology Corp) was used to determine the IC50 value to evaluate the inhibitory ability of the test compound to human PLK1 protein kinase.Buffer conditions: 20 mM HEPES (pH 7.5), 10 mM MgCl2, 1 mM EGTA, 0.01% Brij35, 0.02 mg/ml BSA, 0.1 mM Na3VO4, 2 mM DTT, 1% DMSOTest steps: At room temperature, the compounds to be tested were dissolved in DMSO to prepare a 10 mM solution for use. The substrate Casein was dissolved in a freshly prepared buffer (with a final concentration of 20 μM), and the tested PLK1 kinase (with a final concentration of 12 nM) was added thereto and mixed well. The acoustic wave pipetting system Echo 550 was used to add the mother solution of the test compound dissolved in DMSO to the above mixed reaction mixture according to the set final concentration gradient (the highest final concentration was 1 μM, 3-fold dilution, 10 gradients). After incubation at room temperature for 20 minutes, 33P-ATP (30 μM) was added, and after incubation at room temperature for 120 minutes, the reaction mixture was spotted on P81 ion exchange filter paper (Whatman #3698-915). After the filter paper was repeatedly washed with 0.75% phosphoric acid solution, the radioactivity of the phosphorylated substrate remaining on the filter paper was measured.
Chain of Serine/threonine-protein kinase PLK1 (P53350 whole entry): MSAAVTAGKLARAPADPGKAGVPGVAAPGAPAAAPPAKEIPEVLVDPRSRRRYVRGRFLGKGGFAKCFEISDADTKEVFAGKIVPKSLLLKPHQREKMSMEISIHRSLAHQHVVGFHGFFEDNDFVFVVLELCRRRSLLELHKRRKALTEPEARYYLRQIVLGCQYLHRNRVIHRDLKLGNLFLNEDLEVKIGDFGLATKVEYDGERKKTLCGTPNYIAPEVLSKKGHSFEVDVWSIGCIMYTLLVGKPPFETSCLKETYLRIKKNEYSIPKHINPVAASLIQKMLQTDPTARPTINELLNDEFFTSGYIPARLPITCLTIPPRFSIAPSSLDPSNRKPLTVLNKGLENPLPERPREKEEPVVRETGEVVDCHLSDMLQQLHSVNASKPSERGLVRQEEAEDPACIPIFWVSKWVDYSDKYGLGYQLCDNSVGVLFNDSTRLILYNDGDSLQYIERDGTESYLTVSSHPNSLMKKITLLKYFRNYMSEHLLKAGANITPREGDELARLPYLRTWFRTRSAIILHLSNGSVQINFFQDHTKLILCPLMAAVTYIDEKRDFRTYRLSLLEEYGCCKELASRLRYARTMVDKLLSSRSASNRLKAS
Turning to `CN1CCN(c2ccc(OC(F)(F)F)c(Nc3ncc4c(n3)-c3c(-c5ccco5)sc(C(N)=O)c3CC4)c2)CC1` [US20240140962, Compound 20], the IC50 (commonly the point on the concentration scale where inhibition reaches its midpoint) was 2.8 nM.
Then `CSc1sc(C(N)=O)c2c1-c1nc(Nc3cc(N4CCNCC4)ccc3OC(F)(F)F)ncc1CC2` [US20240140962, Compound 7], with 3 nM; and `CN1CCN(c2ccc(OC(F)(F)F)c(Nc3ncc4c(n3)-c3c(C5CC5)sc(C(N)=O)c3CC4)c2)CC1` [US20240140962, Compound 16], with 5.3 nM.
On to `CCOc1sc(C(N)=O)c2c1-c1nc(Nc3cc(N4CCN(C)CC4)ccc3OC(F)(F)F)ncc1CC2` [US20240140962, Compound 2], for which the IC50 turned out to be 4.2 nM.
For the compound `COc1nnc(N2CCN(C)CC2)cc1Nc1ncc2c(n1)-c1c(SC)sc(C(N)=O)c1CC2` [US20240140962, Compound 17], the half-maximal inhibitory concentration (IC50) is 5.9 nM. This IC50 and that of the compound before are within 1.5-fold of each other.
Compound `CSc1sc(C(N)=O)c2c1-c1nc(Nc3cc(N4CCN(CCO)CC4)ccc3OC(F)(F)F)ncc1CC2` [US20240140962, Compound 8] gave an IC50 of 1.7 nM.
`CSc1sc(C(N)=O)c2c1-c1nc(Nc3cc(N4CCN(C)CC4)ccc3OC(F)(F)F)ncc1CC2` [US20240140962, Compound 1] registered a 50% inhibitory concentration (IC50) of 4.4 nM. This IC50 is about 2.6-fold higher than that of the compound before.
Regarding `CN1CCN(c2ccc(OC(F)(F)F)c(Nc3ncc4c(n3)-c3csc(C(N)=O)c3CC4)c2)CC1` [US20240140962, Compound 12], the IC50 amounted to 4 nM.
